Patent publication US20030017976A1, “Therapeutic properties of liposome-encapsulated immunomodulators” (priority 1998, published 2003)

Columns and labels:
tumor cells = assay: Macrophage-mediated tumor cytotoxicity, target cells not named; assay type: cell-based; conditions: PEM with 50 umol/well MLV (0.1 mg JBT3002/300 μM phospholipid) in the presence of 2 mM NMA
Procedure: Cytotoxicity was assayed by measuring release of radioactivity from target cell DNA as described previously (Dong Z, et al. J Exp Med (1993) 177:1071-7). Briefly, tumor target cells in their exponential growth phase were incubated in medium containing 0.25 μCi/ml of [^3H]TdR (sp. Act. 2 Ci/mmol) (ICN Biomedicals, Inc., Irvine, Calif.) for 24 h. The cells were washed three times with HBSS to remove unbound radioactivity and then harvested by trypsinization (0.25% trypsin in 0.02% EDTA), washed, and resuspended in medium. Cells were plated (at 1×10^4/well) into wells containing control or test macrophages to achieve an E/T cell ratio of 10:1. At this density, macrophages incubated in medium (control) were not cytotoxic to neoplastic cells (Weinstein SL, et al. Proc Natl Acad Sci USA (1991) 88:4148-52; Dong Z, et al. JLeukoc Biol (1993) 53:53-60). […] The lysate was harvested with harvester 96 (Tomtec, Orange, Conn.) and counted for residual radioactivity in a liquid scintillation counter. Macrophage-mediated cytotoxicity was calculated as follows: […]
Efficient activation of macrophages by LPS requires priming by IFN-γ (Saiki I, et al. J Immunol (1985) 135:684-8). […] Tumor cytotoxicity was measured 72 h after the addition of radiolabeled tumor cells to the activated macrophages. […]

[1] = test system: peritoneal exudate macrophages (PEM); assay: Nitrite (NO) production by mouse peritoneal exudate macrophages; assay type: cell-based; conditions: PEM with 50 umol/well MLV (0.1 mg JBT3002/300 μM phospholipid) in the presence of 2 mM NMA
Procedure: Peritoneal exudate macrophages (PEM) were collected by peritoneal lavage from mice given an intraperitoneal injection of 2.0 ml of thioglycollate broth (Baltimore Biological Laboratory, Cockeysville, Md.) 4 days before harvest (Dong Z, O'Brian C A, et al. J Leukoc Biol (1993) 53:53-60; Xie K, Huang S, et al. Cancer Res (1995) 55:3123-31). The PEM were washed in Ca^+2- an Mg^2+-free HBSS and resuspended in serum-free medium: 1×10^5 cells were plated into each 38-mm^2 well of 96-2311 culture plates (Falcon Plastics, Oxnard, Calif.). After a 90-min incubation, the nonadherent cells were removed by washing with medium. More than 98% of the adherent cell populations were macrophages according to morphology and phagocytic criteria (Saiki I, et al. J Immunol (1985) 135:684-8). […] After treatment, the cultures were washed and macrophage-mediated cytotoxicity against different tumor targets was determined. […]
Nitrite accumulation in the culture supernatant was measured in a colorimetric assay as described previously (Ding A E, et al. J Immunol (1988) 141:2407-12). […] The mixtures were incubated 10 min with shaking, and A540 was measured with the use of a microplate reader (Model 3550; Bio-Rad Corp., San Francisco, Calif.). The concentration of nitrite was determined by comparing it with a standard solution of sodium nitrite in medium.

K-1735 M2 cells = assay: Macrophage-mediated cytotoxicity against K-1735 M2 cells; assay type: cell-based, mouse; conditions: PEM activated by JBT3002
[2] = test system: PEM (TNF-α, IL-1α, IL-6, NO); assay: Cytokine and nitrite production by PEM (ELISA, Griess); assay type: cell-based, mouse; conditions: PEM treated with LPS or MLV-JBT3002, genistein 100 μM, PD-98059 10 μM, calphostin-C 250 nM
Procedure: Peritoneal exudate macrophages (PEM) were collected by peritoneal lavage from mice given an intraperitoneal injection of 1.5 ml of thioglycollate broth (Baltimore Biological Laboratory, Cockeysville, Md.) 4 days before harvest.(Saiki I, et al. J Immunol (1985) 135:684 688; Dong Z, et a.l J Leukoc Biol (1993) 53:53-60; Dong Z, J et al. J Exp Med (1993) 177:1071-1077) The PEM were washed in CA^2+- and MG^2+-free HBSS and resuspended in serum-free medium: 1×10^5 cells were plated into each 38-mm^2 well of 96-well culture plates (Falcon Plastics, Oxnard, Calif.). After a 90-minute incubation, the nonadherent cells were removed by washing them with medium. More than 98% of the adherent cell populations were macrophages according to morphology and phagocytic criteria. (Saiki I, et al. J Immunol (1985) 135:684 688)
PEM in 96-well plates at a density of 10^5 cells/well/200 μl of medium were treated as indicated in Results. The culture supernatants were harvested and used immediately for the cytokine assays or stored at −70° C. For cell lysates, supernatants were removed and macrophages were frozen-thawed in fresh medium. Specific cytokines in the supernatants or cell lysates (diluted at 1:5 or 1:10) were measured by ELISA kits according to manufacturer's instructions.
The nitrite concentration in culture supernatants was determined by a microplate assay as described previously. Briefly, 50-μl samples harvested from PEM-conditioned medium were treated with an equal volume of Griess reagent (1% sulfanilamide, 0.1% naphthylene diamine dihydrochloride, and 2.5% H3PO4) at room temperature for 10 minutes. The absorbance at 540 nm was monitored with a microplate reader. The nitrite concentration was determined using sodium nitrite as a standard.

SMILES	tumor cytotoxicity (tumor cells) [%]	NO [1] [µM]	minimal inhibition dose (K-1735 M2 cells) [µM]	effect of kinase inhibitor on production of NO [2]	effect of kinase inhibitor on production of TNF-α ([2]; H-89)
CNC(=N)NCCC[C@H](N)C(=O)O [NMA, N^G-monomethyl-L-arginine]	1.3	1.6	–	–	–
O=c1c(-c2ccc(O)cc2)coc2cc(O)cc(O)c12 [genistein, Genistein]	–	–	30 to 40	significantly inhibited	significantly inhibited
